Assay results published in patent US20220196636A1, “GRID OF RESPONSES INDICATING DRUG SENSITIVITY” (The Johns Hopkins University, priority 2019, published 2022).

Assays:
Assay type in all cases: cell-based, human
[1] = test system: engineered heart slices (EHS) of hiPSC-CMs; test: GRIDS assay (pace-capture and spontaneous activity by optical mapping), EHS
Procedure: (§1) Each EHS was placed in Tyrode's solution and stained with 10 μM di-4-ANEPPS for 10 min at 37° C. The EHS was rinsed several times in a dish with warm Tyrode's solution, and then immersed in Tyrode's solution containing 10 μM blebbistatin to suppress contraction. The dish was placed on a 37° C. heated stage for the duration of the experiment. At least 5 min after adding blebbistatin, the EHS was stimulated with a point electrode and optically mapped using a CMOS camera (MiCAM Ultima-L, SciMedia). The EHS was paced by 5 ms monophasic rectangular pulses at stepwise increasing rates starting at 0.5 Hz. For some samples, E-4031, chromanol 293B, nifedipine, Bay K 8644, BaCl2, or cromakalim was added for 7 min prior to mapping. Mapping data were analyzed using custom MATLAB scripts (details provided in Supplemental Information). AP durations at 30% and 80% repolarization (APD30 and APD80) were calculated from the optical voltage signal. For drug studies, APD and conduction velocity (CV) measurements at each concentration were plotted as a percentage of APD and CV measured at baseline, with no drug present.
(§2) To test the responsiveness of EHS to ion channel modulators, an assay referred to herein as “GRIDS” (grid of responses indicating drug sensitivity) was developed that characterizes the ability of a cardiac preparation to respond to pacing when exposed to a range of drug concentrations. This assay was used to compare EHS to age-matched monolayer cultures. APs of EHS and monolayers were evaluated at each drug concentration in the absence of pacing and when subjected to electrical stimulation at PCLs ranging from 2000 ms to 500 ms. By incorporating a range of pacing rates, GRIDS manifests the distinct sensitivities of different ion currents (Ravens and Wettwer, 1998) and their rate dependencies, and provides a “fingerprint” of drug sensitivity. Several types of responses were observed: no spontaneous activity (FIG. 6A,i), spontaneously generated APs when no pacing was applied (FIG. 6A,ii), extra APs in between pacing stimuli (FIG. 6A, iii), one AP generated for each pacing stimulus—i.e., 1:1 pace-capture (FIG. 6A, iv), and failure to maintain 1:1 pace-capture (lost beats) (FIG. 6A,v).
(§3) EHS were stained with 10 μM of the voltage-sensitive dye di-4-ANEPPS (Sigma-Aldrich Corp.) in Tyrode's solution for 10 minutes at 37° C. Afterwards, EHS were rinsed twice with Tyrode's and placed in a 35-mm dish filled with Tyrode's and 10 μM of the contraction inhibitor blebbistatin (Sigma-Aldrich Corp.). This dish was set on a stage heated to 37° C. and allowed to equilibrate for at least 5 minutes. Samples were point paced with at least 30 stimulus pulses at a range of cycle lengths, starting from 2000 ms and decreasing until the they lost capture. EHS were optically mapped during pacing using a 100×100 pixel CMOS camera (MiCAM Ultima-L, SciMedia, Costa Mesa, Calif.).
(§4) During drug studies, recordings at a range of pacing rates were taken at baseline (prior to the addition of drug) before replacing the solution in the dish with Tyrode's supplemented with blebbistatin and the lowest dose of drug studied. The sample was paced at the same range of rates and mapped 7 minutes after the addition of drug. Afterwards, the bath solution was replaced with Tyrode's with blebbistatin and the next lowest drug dose and the procedure repeated. This method was applied for all doses of each drug and, except where noted in the figures, only one drug was tested per sample. In these studies, we superfused EHS or monolayers with the following drugs: E-4031 (Tocris Bioscience), BaCl2 (Sigma-Aldrich Corp.), Chromanol 293B (Tocris Bioscience), Nifedipine (Tocris Bioscience), Bay K 8644 (Tocris Bioscience), and Cromakalim (Sigma-Aldrich Corp.).
(§5) Optical mapping data was analyzed using custom MATLAB scripts. […]

[2] = test system: hiPSC-CM monolayers; test: GRIDS assay (pace-capture and spontaneous activity by optical mapping), monolayers
Procedure: as §1, §2, §3, §4, §5

[3] = test system: engineered heart slices (EHS) of hiPSC-CMs; test: Optical mapping of action potential duration and conduction velocity, EHS; conditions: for change in APD80 compared to baseline, d201 EHS / change in conduction velocity compared to baseline, d201 EHS: paced at 1900 ms, n=4
Procedure: as §1, §3, §4
(§6) Optical mapping data was analyzed using custom MATLAB scripts. Recordings at each pixel were de-noised using a previously described method (Little and Jones, 2010) to regulate total signal variance and convolved with a 5×5 spatial Gaussian filter. Activation times were defined as the maximum of the derivative of membrane potential (dV/dt), which was calculated as previously described (Chartrand, 2011). Histograms of local conduction velocities for each EHS were fitted to a Gaussian curve and the mean of the curve was defined as the average conduction velocity (CV). To determine longitudinal and transverse CVs, a bimodal Gaussian curve was fitted to the local CVs. Action potential durations at 30 and 80 percent repolarization (APD30 and APD80) were determined for all local traces over the recording region for each EHS and fit with Gaussian curves to determine the mean value for each EHS, as described for CV measurements. For drug studies, average APD and CV measurements for each dose were normalized by average APD and CV measurements at baseline (without the drug).

[4] = test system: hiPSC-CM monolayers; test: Optical mapping of action potential duration and conduction velocity, monolayers
Procedure: as §1, §3, §4, §6

[5] = test system: monolayers of hiPSC-CMs; test: GRIDS analysis applied to video-based contraction data, monolayers; conditions: n=6
Procedure: GRIDS analysis was applied to contraction data collected from monolayers of hiPSC-CMs. Each monolayer (cultured on a plastic coverslip) was placed in a 35-mm dish filled with cell culture medium and set on the stage of a microscope (LS720, Etaluma) fitted within a cell culture incubator. Monolayers were superfused with increasing concentrations of E-4031 (FIG. 15) or isoproterenol (FIG. 16), ranging from 0 to 10 μM, and paced at decreasing cycle lengths (increasing rates), ranging from 2000 ms to 500 ms, using a field electrode. At each drug dose and paced cycle length, a 30-second video of the contracting cells was recorded at a rate of 20-30 frames per second. The cellular contraction was quantified by subtracting one reference frame of video from all other frames, summing the pixels in each frame after subtraction, plotting the summed signal over time, and detecting the peaks in the signal.

[6] = test system: engineered heart slices (EHS) of hiPSC-CMs; test: Contraction measurements of EHS (change in EHS area during pacing)
Procedure: WT d24-78 EHS were placed in a 35-mm tissue culture mm dish filled with Tyrode's solution and maintained at 31±0.1° C. for the duration of the experiment. A section of each EHS was detached from the edge of the coverslip so that it could move freely. Each EHS was paced at 1 Hz, 1.5 Hz, and 2 Hz while the free region was imaged with a CCD camera. A custom MATLAB script was used to segment the image and calculate the change in EHS area over time, which was used as a measure of contraction.
Tyrode's solution was prepared by combining 1.8 mM CaCl2, 5 mM glucose, 5 mM HEPES, 1 mM MgCl2, 5.4 mM KCl, 135 mM NaCl, and 0.33 mM NaH2PO4 in ddH2O and adding NaOH to raise the pH to 7.4 (all chemicals from Sigma-Aldrich Corp.). EHS were placed in a 35-mm dish filled with Tyrode's solution and set on a stage heated to 31±0.1° C. (Warner Instruments, Hamden, Conn.). A section of each EHS was unhooked and allowed to move freely throughout the duration of the experiment. The EHS were allowed to equilibrate in Tyrode's for 5 minutes before the start of pacing with a point electrode. Each sample was paced for 1 minute at each of 3 cycle lengths (1000 ms, 666 ms, 500 ms), while the freely moving region was kept approximately vertical in the field of view and imaged at 4× magnification using a CCD camera (Swiftcam, Swift, Schertz, Tex.) at a rate of 14-17 fps with 320×256 pixel resolution. Samples also were imaged during pacing at 666 ms after the application of 1 μM isoproterenol (Sigma-Aldrich Corp.) for 2 minutes and after washout of the drug for 2 minutes. A pacing cycle length shorter than 1000 ms was applied in the presence of isoproterenol to overcome the increase in spontaneous rate in response to the drug. […] From this, the area of EHS was calculated in each image. The change in area from a fully relaxed state (reference frame, designated as 100% EHS area) was determined for each frame in the time series. […]

[7] = chromanol 293B, all concentrations tested
[8] = chromanol 293B 1 μM to 60 μM, PCL 1000 ms
[9] = BaCl2 up to 150 μM, PCL 1000 ms, concentration-dependent
[10] = additional 1 μM Bay K 8644 after 1 μM cromakalim
[11] = E-4031 50 nM to 10 μM, PCL 1500 ms, concentration-dependent

For `CCS(=O)(=O)N(C)[C@H]1c2cc(C#N)ccc2OC(C)(C)[C@@H]1O` (racemic) [chromanol 293B], the “pace-capture (GRIDS), EHS” value [1, 7] was “could be pace-captured at all PCLs from 2000 ms down to 500 ms”, the “pace-capture (GRIDS), monolayers” value [2, 7] was “could be pace-captured at all PCLs from 2000 ms down to 500 ms” and the “fraction of monolayers exhibiting spontaneous activity when no pacing was applied” value ([2]; chromanol 293B, concentrations up to 60 μM) was “non-zero and constant at all concentrations except for 5 μM, when it was zero, and 60 μM, when all monolayers exhibited spontaneous activity”. The “change in APD80, EHS” value [3, 8] was “no effect”, the “change in CV, EHS” value [3, 8] was “no effect” and the “change in APD80, monolayers” value [4, 8] was “no effect”. The “change in CV, monolayers” value [4, 8] was “no effect”.

`[Ba+2].[Cl-].[Cl-]` [BaCl2] was tested, and the “pace-capture (GRIDS), EHS” value ([1]; 1 mM BaCl2, 500 ms PCL) was “all of the EHS tested lost capture”, the “sensitivity (GRIDS), EHS compared with monolayers” value ([1]; BaCl2) was “less sensitive to BaCl2 than monolayers” and the “spontaneous rate, EHS” value ([1]; BaCl2, no pacing) was “increased in a concentration-dependent manner”. For the same compound, the “pace-capture (GRIDS), EHS” value ([1]; all concentrations of BaCl2) was “could be overdrive paced at 700 ms and 1000 ms PCL for all concentrations”, the “pace-capture (GRIDS), monolayers” value ([2]; 500 μM BaCl2) was “could be partially pace-captured only at CLs of 1000 ms and less” and the “spontaneous beating rate, monolayers” value ([2]; 500 μM BaCl2) was “up to 1 Hz”. The “pace-capture (GRIDS), monolayers” value ([2]; 1 mM BaCl2) was “only a small fraction could be partially pace-captured at a CL of 500 ms”, the “spontaneous beating rate, nearly all monolayers” value ([2]; 1 mM BaCl2) was greater than 2 Hz and the “spontaneous rate, monolayers” value ([2]; BaCl2, no pacing, effect greater in monolayers than in EHS) was “increased in a concentration-dependent manner”. The “change in APD80, EHS” value [3, 9] was “increased APD80”, the “change in CV, EHS” value ([3]; BaCl2 up to 150 μM, PCL 1000 ms, statistically significant) was “decreased CV” and the “change in APD80, monolayers” value [4, 9] was “increased APD80”. The “change in CV, monolayers” value ([4]; BaCl2 up to 150 μM, PCL 1000 ms, did not reach statistical significance) was “decreased CV”.

In the case of `COC(=O)C1=C(C)NC(C)=C([N+](=O)[O-])C1c1ccccc1C(F)(F)F` (centres unmarked) [Bay K 8644], the “change in CV, EHS” value ([3]; Bay K 8644 0.3 μM to 100 μM, concentration-dependent, n=3) is reported as “decreased CV”, the “change in APD, EHS” value ([3]; Bay K 8644 0.3 μM to 100 μM, paced at 700 ms, concentration-dependent, n=3) is reported as “increased APD” and the “maximum capture rate, EHS” value ([3]; Bay K 8644, n=3) is reported as “decreased the maximum capture rate”. The “change in APD80 compared to baseline, d201 EHS” value [3, 10] was “decreased APD80” and the “change in conduction velocity compared to baseline, d201 EHS” value [3, 10] was “slowed conduction velocity”.

For `Cc1cccc(CCN2CCC(C(=O)c3ccc(NS(C)(=O)=O)cc3)CC2)n1` [E-4031], the “pace-capture from contraction video (GRIDS), monolayers” value ([5]; E-4031 0 to 10 μM, PCL 2000 ms to 500 ms, more pronounced at higher doses) was “began to lose capture as the pacing rate was increased”, the “sensitivity of pace-capture (GRIDS), EHS compared with monolayers” value ([1]; E-4031 greater than 50 nM (tested 1 nM to 10 μM), rapid pacing) was “lower sensitivity of EHS to E-4031” and the “loss of capture during pacing (GRIDS), monolayers” value ([2]; E-4031 greater than 50 nM (tested 1 nM to 10 μM), increasingly shorter PCLs) was “a greater fraction of monolayers than EHS lost capture”. The “change in APD80, EHS” value [3, 11] was “prolonged APD80”, the “change in CV, EHS” value [3, 11] was “slowed CV” and the “change in APD80, monolayers” value [4, 11] was “prolonged APD80”. For the same compound, the “change in CV, monolayers” value [4, 11] was “slowed CV”.

In the case of `CC1(C)Oc2ccc(C#N)cc2C(N2CCCC2=O)C1O` (centres unmarked) [cromakalim], the “change in APD80 compared to baseline, d201 EHS” value ([3]; 1 μM cromakalim) is reported as “decreased APD80” and the “change in conduction velocity compared to baseline, d201 EHS” value ([3]; 1 μM cromakalim) is reported as “slowed conduction velocity”.

`CC(C)NCC(O)c1ccc(O)c(O)c1` (centres unmarked) [isoproterenol] was tested, and the “area change during contraction relative to baseline” value ([6]; 1 μM isoproterenol, PCL 666 ms (1.5 Hz), n=8) was 1.5±0.6 fold, the inotropic response ([6]; EHS) was “positive inotropic response” and the “area change during contraction relative to baseline after washout of the drug” value ([6]; after washout of 1 μM isoproterenol, PCL 666 ms, n=8) was 1.1±0.4 times the baseline value. The “spontaneous rate from contraction video (GRIDS), monolayers” value ([5]; isoproterenol 0 to 10 μM, no pacing or 2000 ms pacing) was “increased the spontaneous rate of the monolayers in a dose-dependent manner”.
